Data: US20090143293A1, “Peptide inhibitors of protein kinase C gamma for pain management” (priority 2002, published 2009)
“Also recorded” adds a separate entry of the source. Where two headings read alike, the source gives them in different places.

Tests used:
[1] = test system: allodynia and/or hyperalgesia; conditions: capsaicin model; cited from earlier work
[2] = test system: allodynia and/or hyperalgesia; conditions: formalin model; cited from earlier work
[3] = test system: formalin-induced spontaneous pain behaviors; test: Formalin-induced nociception in rat pups, peptide given before formalin (Example 1); assay type: in vivo, rat (Sprague-Dawley pups)
Method: In the study detailed in Example 1, the peptide identified herein as SEQ ID NO:4 was administered to rat pups on postnatal days 7, 15, and 21. The peptide was administered 15 minutes prior to intraplantar formalin injection. Following formalin injection, spontaneous pain behaviors were recorded every two minutes for one hour. In this study, an εPKC antagonist peptide from the V1 domain was used as a positive, comparative control. As noted above, the εV1-2 peptide, EVASLKPT (SEQ ID NO:6) has been described, for example, in U.S. Pat. No. 5,783,405 and by Dorn et al. (PNAS, […]:12798 (1999)).
Both the εV1-2 peptide and the γPKC peptide V5-3 (SEQ ID NO:4) were conjugated via terminal cysteine residues to a carrier peptide, Tat (SEQ ID NO:7), for administration. One group of animals was treated with the Tat carrier peptide alone as a control. Another group of animals received only saline as a control.
The results are shown in FIGS. 2A-2C, where average pain scores for rat pups treated with γPKC (closed squares), εPCK (open squares), the Tat carrier peptide alone (open triangles), or saline (open circles) are shown as a function of time, in minutes. The average pain score was determined by a time sampling method, where the animal's behavior was recorded every two minutes. A score of “1” was given if the animal was licking, shaking, or elevating the formalin-treated paw. The three pain scores over a six minute period of observation were summed into a single score, to give a maximum possible score of 3 for each animal for each six minute interval. The average pain score was determined from the individual scores of the animals in each treatment group. FIG. 2A corresponds to the average pain scores for 7 day old rat pups, where 1% formalin was administered to the paw 15 minutes post delivery of the peptide or control substance.
Rat pups (male and female, Sprague-Dawley) were randomly divided at selected days after birth (postnatal days 7, 15, and 21) into groups for treatments. Each group received a PKC V5-domain test peptide, a positive, comparative control peptide, a carrier peptide control, or a saline control. The V5-domain test peptide was a γPKC peptide identified herein as SEQ ID NO:4 and as the comparative control peptide was a V1 domain εPKC peptide identified herein as SEQ ID NO:6. Peptides were reversibly conjugated to a Tat-peptide carrier (SEQ ID NO:7) via a cysteine-cysteine bond at their N termini. The peptides were administered via direct lumbar puncture (intrathecal administration) at the indicated dose, typically a dose of 20 μM PKC peptide in 5 μL (7 day old pups) or 10 μL (15 and 21 day old pups) saline.
Fifteen minutes after administration of the peptides or the control substance, 1% formalin (7 day old pups) or 2.5% formalin (15 and 21 day old pups) was delivered intradermally to the paw. Spontaneous pain behaviors were recorded every two minutes for one hour following formalin injection. The time sampling method for behavioral observation was employed, in which the observer rapidly recorded the behavior of the animals every two minutes (Teng et al., Pain, 76:337 (1998). A score of “1” was given if the animal was licking, shaking, or elevating the hindpaw. A six minute period of observation provided a maximum pain score of “3” for each animal.

[4] = test system: capsaicin-induced nociception; test: Capsaicin-induced nociception, paw withdrawal latency (Example 2); assay type: in vivo, rat (adult male Sprague-Dawley); conditions: 10 μM Tat-conjugated peptide intrathecal 15 min before 3% capsaicin, FIG. 3; for response to nociception (paw withdrawal latency): low rate heating
Method: Example 2 describes another study in support of the invention, where a γPKC V5 domain peptide (SEQ ID NO:4) was used for pain management in the capsaicin pain model. As a positive, comparative control, a V1 εPKC peptide (SEQ ID NO:6) was used. The peptides were conjugated to a Tat carrier peptide (SEQ ID NO:7) and were administered intrathecally to test animals prior to application of capsaicin to a paw. […] minutes after capsaicin application, paw withdrawal latency was measured at regular intervals for 75 minutes. The results are shown in FIG. 3, for Tat-derived γPCK (closed squares), Tat-derived-εPCK (open squares), the Tat carrier peptide alone (open triangles), and for animals treated with saline (open circles).
Adult male Sprague-Dawley rats weighing between 200-250 g were lightly anaesthetized with urethane (800 mg/kg, i.p.). The dorsal surface of each animal was painted with India ink to ensure heat was applied evenly to the dorsal surface. Baseline measurements of all animals (n=10/test group) were taken for 45 minutes for both C-fibers (0.9° C./sec heating rate) and Aδ-fibers (6.5° C./sec heating rate). The test V5 peptide was derived from the V5 region of γPKC (SEQ ID NO:4) and was conjugated to a Tat-carrier peptide (SEQ ID NO:7). As a positive comparative control, a peptide from the V1 domain of εPKC (SEQ ID NO:6) was also conjugated to a Tat-carrier peptide (SEQ ID NO:7). The peptides were delivered intrathecally via direct lumbar puncture (10 μM peptide in 20 μL saline) 15 minutes prior to topical application of capsaicin to the left hind paw (100 μL of 3% capsaicin). Saline and the Tat-carrier peptide alone (SEQ ID NO:7) were also administered to two separate groups of control animals. A latency measurement was taken post peptide but prior to capsaicin application to control for direct peptide effect. Twenty minutes after the application of capsaicin, the ink was re-applied, and the dorsal surface of the hind paws was subjected to low rate heating for a maximum of 20 seconds. Foot withdrawal latencies were measured at 15 minute intervals.

pain = conditions: reported in WO 00/01415; listed as εV1-2 peptide; cited from earlier work
εPKC = target: T1, εPKC (Homo sapiens, UniProt Q02156); conditions: reported in the literature; listed as εV1-2 peptide; cited from earlier work
T1 sequence (Q02156 1-737): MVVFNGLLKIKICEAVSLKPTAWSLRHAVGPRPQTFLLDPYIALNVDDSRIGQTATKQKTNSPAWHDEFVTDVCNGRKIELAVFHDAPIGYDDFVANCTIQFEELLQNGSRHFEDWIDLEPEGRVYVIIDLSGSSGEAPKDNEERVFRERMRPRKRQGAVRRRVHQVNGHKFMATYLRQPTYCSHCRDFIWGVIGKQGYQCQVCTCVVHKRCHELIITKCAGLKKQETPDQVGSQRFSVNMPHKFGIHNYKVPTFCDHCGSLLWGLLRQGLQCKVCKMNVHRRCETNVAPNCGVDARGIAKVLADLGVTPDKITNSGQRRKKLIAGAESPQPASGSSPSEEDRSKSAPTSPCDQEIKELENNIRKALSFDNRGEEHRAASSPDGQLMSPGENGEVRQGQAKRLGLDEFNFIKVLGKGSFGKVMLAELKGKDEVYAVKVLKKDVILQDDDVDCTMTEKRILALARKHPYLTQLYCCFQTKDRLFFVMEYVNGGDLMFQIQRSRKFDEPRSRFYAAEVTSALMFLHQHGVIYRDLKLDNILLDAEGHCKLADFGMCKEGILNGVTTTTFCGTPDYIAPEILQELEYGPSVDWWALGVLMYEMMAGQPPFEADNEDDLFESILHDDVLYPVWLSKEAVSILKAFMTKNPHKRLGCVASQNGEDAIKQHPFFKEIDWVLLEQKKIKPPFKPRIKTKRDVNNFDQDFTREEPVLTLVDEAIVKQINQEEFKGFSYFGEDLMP

[5] = test system: formalin-induced spontaneous pain behaviors; test: Dose response study in the formalin-induced pain model, rats at postnatal days 7, 15, 21; assay type: in vivo, rat
From the text: In postnatal day 21 and older rats, intraplantar formalin produces a stereotypic biphasic behavioral pattern. Phase 1 is characterized by intense shaking, lifting and licking of the offending hindpaw produced by activation of peripheral nociceptors. Activation of descending inhibitory pathways follows, reducing spontaneous pain behaviors (quiescent phase). Quiescence is followed by a second phase, characterized by a revival of pain behaviors, and at least partially mediated by central mechanisms.
A dose response study on rats at postnatal days 7, 15, and 21 using the γPCK V5 peptide identified herein by SEQ ID NO:4. In this study, the average pain scores as a function of time were determined, as described above, using the formalin-induced pain model. The peptide was administered at dosages of 2 μM, 10 μM and 20 μM fifteen minutes […] formalin injection. The results are shown in FIGS. 4A-4C for rats at postnatal day 7 (FIG. 4A), postnatal day 15 (FIG. 4B) and postnatal day 21 (FIG. 4C), where the 2 μM γPKC dose is represented by inverted triangles, the 10 μM dose of γPKC is represented by diamonds, and the 20 μM γPKC dose by circles. The control groups received 10 μM of the Tat carrier peptide and are represented by triangles.

[6] = test system: allodynia and/or hyperalgesia; conditions: neuropathy model; cited from earlier work
[7] = 7 day old rat pups, 1% formalin to paw 15 min after intrathecal Tat-conjugated peptide, FIG. 2A
[8] = 15 day old rat pups, 2.5% formalin 15 min after intrathecal Tat-conjugated peptide, FIG. 2B
[9] = 21 day old rat pups, 2.5% formalin 15 min after intrathecal Tat-conjugated peptide, FIG. 2C
[10] = 2, 10, 20 μM, postnatal days 7, 15, 21, FIGS. 4A-4C

CCCCCCCCCCCCC(=O)N1CCCCC1CNC(=O)C(N)CCCCN (centres unmarked) [NPC15437]
allodynia and/or hyperalgesia induced by the inflammatory agents [1]: reversal of the allodynia and/or hyperalgesia

COc1ccc2c(c[n+](C)c3c4cc5c(cc4ccc23)OCO5)c1OC [chelerythrine]
allodynia and/or hyperalgesia induced by the inflammatory agents [2]: reversal of the allodynia and/or hyperalgesia

EVASLKPT [SEQ ID NO:6, peptide derived from the V1 domain of εPKC, positive comparative control, reference compound]
average pain score relative to control pups [3, 7]: provided a greater attenuation of formalin-induced nociception
average pain score relative to control pups [3, 8]: contribute to nociception relief
average pain score relative to control pups [3, 9]: contribute to nociception relief
reducing the paw withdrawal latency [4]: about 50%
response to nociception (paw withdrawal latency) [4]: anti-hyperalgesic
pain (pain): reported to lessen pain; also recorded: ameliorate pain
selective inhibition of εPKC (εPKC): selective inhibitor of εPKC; also recorded: selectively inhibit PCKε action

RLVLAS (peptide derived from the V5 domain of the gamma isozyme of PKC) [SEQ ID NO:4, peptide derived from the V5 domain of the γ isozyme of PKC]
average pain score relative to control pups [3, 7]: effective to lessen pain
average pain score relative to control pups [3, 8]: effective to alleviate pain
average pain score relative to control pups [3, 9]: provided a reduction in pain
duration of formalin-induced pain ([3]; summary of FIGS. 2A-2C): effectively shortened the duration
formalin-induced spontaneous pain behaviors ([3]; summary of FIGS. 2A-2C, postnatal days 7, 15, 21): attenuated formalin-induced spontaneous pain behaviors
response to nociception (paw withdrawal latency) [4]: induced an analgesic effect, producing an increase of threshold in the initial time point
response to nociception (paw withdrawal latency) ([4]; listed as γPKC V5 domain peptide): effective to modulate the response to nociception
phase 1 of formalin-induced spontaneous pain behaviors [5, 10]: but not phase 1
phase 2 of formalin-induced spontaneous pain behaviors [5, 10]: attenuated phase 2
attenuation of phase 2 behaviors ([5]; 7 day old rats, highest dose (20 μM)): mild anti-nociception
duration of phase 2 behaviors ([5]; 15 day old rats): shortened the duration of phase 2 behaviors
duration of phase 2 behaviors ([5]; 21 day old rats): shortened the duration of phase 2 behaviors
attenuation of phase 2 behaviors ([5]; 21 day old rats, all three doses (2, 10, 20 μM)): more robust anti-nociception

calphostin
allodynia and/or hyperalgesia induced by the inflammatory agents [6]: reversal of the allodynia and/or hyperalgesia
